{"source": "patent EP2229935A1", "about": "“Peptide derivatives or pharmaceutically acceptable salts thereof, method for producing the same, use of said derivatives and pharmaceutical composition” (Nebolsin, Vladimir Evgenievich, priority 1997, dated 1999)", "key": {"[1]": {"system": "peripheral blood neutrophils", "assay": "Activity of peripheral blood neutrophils in mice with LLC", "format": "in vivo, C57BL/6 female mice", "settings": "Cyclophosphane 5 times 20.0 mg/kg (in 48 hours) for 10 days", "procedure": "Experiments were carried out on C57BL/6 female mice with intramuscularly transplanted LLC carcinoma. Activity of neutrophils was measured by days 11 and 14.\n• control - animals with LLC tumor, 10 animals; • animals with LLC tumor + compound III at a dose 500.0 µg/kg for 10 days. 8 animals; • animals with LLC tumor + Cyclophosphane 5 times at a dose 20.0 mg/kg (in 48 hours) for 10 days, 8 animals; • compound III and Cyclophosphane according to the above dosage regimen, 8 animals.\nExperiment duration was 14 days."}, "[2]": {"system": "Lewis pulmonary carcinoma (LLC)", "assay": "LLC metastasizing with surgical resection of the primary tumor node, alone and with Cyclophosphane", "format": "in vivo, C57BL/6 female mice", "settings": "96 hour interval, 100 µg/kg", "procedure": "An important property of the compounds is their ability to manifest pharmacological activity on the model with resection of the primary tumor node and not to lower therapeutic efficacy of respective antitumor drugs. […] Surgical resection of the primary tumor node was performed by day 13 following tumor transplantation. The test anitumor compounds were administered according to two dosage regimens:\nDosage regimen 1 - animals were administered compound III from day 1 till day 13 of experiment at a dose 500 µg/kg (group 1); Cyclophosphane was administered intraperitoneally two times before operation with 96 hour interval at a dose 100 µg/kg (group 2); combined administration of compound III and Cyclophosphane was similar to administration of substances in groups 1 and 2 (group 3). Number of metastases was calculated by day 29 of experiment;\nDosage regimen 2 - animals were administered compound III from day 14 of experiment (commencement of administration 24 hours post operation) till day 28 (group 4); Cyclophosphane was administered twice post operation with 96 hour interval at a dose 100 µg/kg (group 5); combined administration of compound III and Cyclophosphane similar to administration of substances in groups 4 and 5 (group 6). Antimetastatic efficacy of the drugs was considered by day 29 of experiment."}, "[3]": {"settings": "regimen 1: intraperitoneally two times before operation"}, "[4]": {"settings": "regimen 2: twice post operation"}}}
{"compound": "O=P1(N(CCCl)CCCl)NCCCO1", "note": "(stereo not drawn) [Cyclophosphane, reference compound]", "values": [{"measurement": "Percent of active neutrophils", "setting": "[1]; Background", "result": "21.5 ± 3.4", "unit": "%"}, {"measurement": "Percent of active neutrophils", "setting": "[1]; day 11", "result": "7.6 ± 2.0", "unit": "%"}, {"measurement": "Percent of active neutrophils", "setting": "[1]; day 14", "result": "20.6 ± 6.0", "unit": "%"}, {"measurement": "Mean number of metastases", "setting": "[2]; [3]", "result": "19.5 ± 5.1"}, {"measurement": "Metastasizing inhibition percent", "setting": "[2]; [3]", "result": 43.9, "unit": "%"}, {"measurement": "Metastasizing rate (%)", "setting": "[2]; [3]", "result": 100, "unit": "%"}, {"measurement": "Mean number of metastases", "setting": "[2]; [4]", "result": "18.0 ± 4.3"}, {"measurement": "Metastasizing inhibition percent", "setting": "[2]; [4]", "result": 51.5, "unit": "%"}, {"measurement": "Metastasizing rate (%)", "setting": "[2]; [4]", "result": 100, "unit": "%"}]}
